According to patent US7544814B2, “[3.2.0] Heterocyclic compounds and methods of using the same” (Nereus Pharmaceuticals, Inc., priority 2004, dated 2009):
Values joined by “and” are separate entries in the source; they are usually repeats but may differ in a detail not shown here. Equal entries are not always repeated. Where two headings read alike, the source gives them in different places.

What was measured:
U266 = experiment: Cell growth inhibition (resazurin), U266; details: for EC50: 48 hours drug exposure; for cytotoxicity against U266, in words: from EC50 values
RPMI 8226 = experiment: Cell growth inhibition (resazurin), RPMI 8226; details: for cytotoxicity against RPMI 8226, in words: from EC50 values
NF-κB = experiment: NF-κB-mediated luciferase reporter gene assay, HEK293 NF-κB/Luc cells, TNF-α stimulation; assay type: cell-based, human; details: for effect on luciferase activity upon TNF-α stimulation, in words: pretreatment of NF-κB/Luc 293 cells
Description: The HEK293 NF-κB/luciferase reporter cell line is a derivative of the human embryonic kidney cell line (ATCC; CRL-1573) and carries a luciferase reporter gene under the regulation of 5× NF-κB binding sites. […] When performing the luciferase assay, the DMEM basal medium was replaced with phenol-red free DMEM basal medium and the G418 was omitted.
For NF-κB-mediated luciferase assays, HEK293 NF-κB/luciferase cells were seeded at 1.5×10^4 cells/well in 90 μl phenol-red free DMEM complete medium into Corning 3917 white opaque-bottom tissue culture plates. For Formula II-2, Formula II-4, Formula II-5A, and Formula II-18, a 400 μM starting dilution was made in 100% DMSO and this dilution was used to generate a 8-point half log dilution series. […] For Formula II-20, a 2.5 mM or 8 mM starting solution was made in 100% DMSO and the final test concentrations ranged from 6.3 μM to 2.0 nM or 20 μM to 6.3 nM, respectively. The plates were returned to the incubator for 1 hour. After 1 hr pretreatment, 10 μl of a 50 ng/ml TNF-α solution, prepared in the phenol-red free DMEM medium was added, and the plates were incubated for an additional 6 hr.
At the end of the TNF-α stimulation, 100 μl of Steady Lite HTS luciferase reagent (Packard Bioscience) was added to each well and the plates were left undisturbed for 10 min at room temperature before measuring the luciferase activity. The relative luciferase units (RLU) were measured by using a Fusion microplate fluorometer (Packard Bioscience).

[1] = target: T1, chymotrypsin-like activity of purified rabbit muscle 20S proteasome (Oryctolagus cuniculus, UniProt G1T4Q9); experiment: In vitro inhibition of 20S proteasome chymotrypsin-like activity (suc-LLVY-AMC)
T1 sequence (G1T4Q9 1-263): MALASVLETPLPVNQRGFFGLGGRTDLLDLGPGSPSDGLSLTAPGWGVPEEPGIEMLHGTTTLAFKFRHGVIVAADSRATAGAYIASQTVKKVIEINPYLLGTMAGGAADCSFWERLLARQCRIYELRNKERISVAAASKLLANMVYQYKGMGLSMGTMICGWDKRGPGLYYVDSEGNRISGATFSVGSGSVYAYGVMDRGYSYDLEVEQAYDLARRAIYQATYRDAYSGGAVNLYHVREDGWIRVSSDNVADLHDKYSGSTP

[2] = target: T2, trypsin-like activity of purified rabbit muscle 20S proteasome (Oryctolagus cuniculus, UniProt G1SWK8); experiment: In vitro inhibition of 20S proteasome trypsin-like activity (Boc-LRR-AMC); details: for inhibition of the trypsin-like activity of the 20S proteasome, in words: under the conditions tested
T2 sequence (G1SWK8 1-271): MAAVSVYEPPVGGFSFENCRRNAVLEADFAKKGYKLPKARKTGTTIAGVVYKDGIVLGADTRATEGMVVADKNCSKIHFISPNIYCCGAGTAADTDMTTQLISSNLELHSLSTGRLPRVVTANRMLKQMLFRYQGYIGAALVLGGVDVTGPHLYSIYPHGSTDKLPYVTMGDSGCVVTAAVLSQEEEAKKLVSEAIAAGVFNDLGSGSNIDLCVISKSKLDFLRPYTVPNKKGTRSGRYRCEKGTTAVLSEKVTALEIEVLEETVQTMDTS

[3] = target: T3, caspase-like activity of purified rabbit muscle 20S proteasome (Oryctolagus cuniculus, UniProt A0A5F9DQW2); experiment: In vitro inhibition of 20S proteasome caspase-like activity (Z-LLE-AMC)
T3 sequence (A0A5F9DQW2 1-212): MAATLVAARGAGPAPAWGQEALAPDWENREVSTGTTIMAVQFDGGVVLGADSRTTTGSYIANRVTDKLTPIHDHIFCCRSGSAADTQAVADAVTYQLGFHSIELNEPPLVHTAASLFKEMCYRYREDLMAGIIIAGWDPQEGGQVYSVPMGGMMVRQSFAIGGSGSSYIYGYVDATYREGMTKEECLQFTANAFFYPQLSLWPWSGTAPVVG

[4] = target: T2, trypsin-like activity of purified rabbit muscle 20S proteasome; experiment: biochemical
[5] = Homo sapiens, U-266, 48 h, read-out: U266 EC50, Table 2
[6] = Homo sapiens, RPMI-8226, 48 h, read-out: RPMI 8226 EC50, Table 2, 48 hours drug exposure, mean ± SD where n≥3
[7] = Homo sapiens, HEK293, Table 5, values printed in μM, 1 hr pretreatment, TNF-α 6 hr, read-out: EC50, NF-κB-mediated luciferase reporter gene assay
[8] = read-out: RPMI 8226 EC50, Table 2, 48 hours drug exposure, mean ± SD where n≥3
[9] = EC50 Chymotrypsin-like, Table 6, values in nM
[10] = EC50 values, chymotrypsin-like activity, summary of Table 6
[11] = EC50 Caspase-like, Table 6, values in μM
[12] = EC50 Chymotrypsin-like, Table 6, values in μM
[13] = EC50 values, chymotrypsin-like activity, range or bound stated in text, summary of Table 6
[14] = EC50 values, caspase-like activity, range in mixed units, summary of Table 6, range from nM to μM
[15] = Table 5, values in μM, 1 hr pretreatment, TNF-α 6 hr, read-out: EC50, NF-κB-mediated luciferase reporter gene assay
[16] = Homo sapiens, HEK293, read-out: EC50, NF-κB-mediated luciferase reporter gene assay, Table 5, values in nM, 1 hr pretreatment, TNF-α 6 hr
[17] = Homo sapiens, HEK293, read-out: EC50, NF-κB-mediated luciferase reporter gene assay, Table 5, values in μM, 1 hr pretreatment, TNF-α 6 hr

SMILES | EC50 (RPMI 8226; [6]) [nM] | cytotoxicity against RPMI 8226, in words (RPMI 8226) | EC50 (RPMI 8226; [8]) [nM] | EC50 [1, 9] | EC50 [1, 10] [nM] | inhibition of the trypsin-like activity of the 20S proteasome, in words [2] | EC50 [3, 11] | EC50 [4] | effect on luciferase activity upon TNF-α stimulation, in words (NF-κB) | also measured
C[C@@]12OC(=O)[C@]1(C(O)[C@@H]1C=CCCC1)NC(=O)[C@@H]2CCCl (single isomer, unassigned) [Formula II-25] | > 20000 | – | – | – | – | – | – | – | – | EC50 (U266; [5]): > 20000 nM; EC50 (NF-κB; [7]): > 20 µM
CC12OC(=O)C1(CC1C=CCCC1)NC(=O)C2CCCl (stereo not shown) [Formula I-7] | 240 | cytotoxic | 250 | 52 ± 2 nM | 13 to 88 | – | – | – | – | –
CC12OC(=O)C1(C(=O)C1C=CCCC1)NC(=O)C2CCCl (stereo not shown) [Formula II-13C] | – | – | – | – | – | able to inhibit | > 20 µM | 8600 nM and 12800 nM | – | EC50 [1, 12]: 7600 nM and 8800 nM; EC50 [1, 13]: 1400 to 10600 nM
C[C@@]12OC(=O)[C@]1([C@@H](O)[C@@H]1C=CCCC1)NC(=O)[C@@H]2CCO [Formula II-21] | > 20000 | – | – | 8 nM | 2 to 11 | able to inhibit | 2.6 µM and 2.3 µM | 879 nM | dose-dependent decrease | EC50 (U266; [5]): 6090 nM; cytotoxicity against U266, in words (U266): cytotoxic; EC50 (U266; read-out: U266 EC50, Table 2): 9670 nM; EC50 (RPMI 8226; Homo sapiens, RPMI-8226, read-out: Cytotoxicity RPMI EC50, Table 12): > 20000 nM; EC50 ([2]; read-out: Proteasome Trypsin-like EC50, Table 12): 879 nM; EC50 [3, 14]: 0.956 to 8.7 µM; EC50 ([3]; Proteasome Caspase-like EC50, Table 12): 2.58 µM and 2.33 µM; EC50 (NF-κB; [7]): 3.2 µM; EC50 (NF-κB; [15]): 2.7 µM; EC50 (NF-κB; Table 12, read-out: NF-κB EC50): 2.71 µM; EC50 ([1]; Proteasome Chymotrypsin-like EC50, Table 12): 8 nM
CCC(=O)OCC[C@H]1C(=O)N[C@@]2([C@@H](O)[C@@H]3C=CCCC3)C(=O)O[C@@]12C [Formula II-22] | 9720 | cytotoxic | 11200 | 7 nM and 3 nM | 2 to 11 | able to inhibit | 1.3 µM and 1.4 µM | 289 nM | dose-dependent decrease | cytotoxicity against U266, in words (U266): cytotoxic; EC50 [3, 14]: 0.956 to 8.7 µM; EC50 (NF-κB; [16]): 0.728 µM; EC50 (NF-κB; [17]): 1 µM
CC[C@@]12OC(=O)[C@]1([C@@H](O)[C@@H]1C=CCCC1)NC(=O)[C@@H]2CCCl [Formula II-24C] | 2320 | cytotoxic | 1640 | – | – | able to inhibit | > 20 µM | 3300 nM and 3100 nM | dose-dependent decrease | EC50 (U266; [5]): 1150 nM; cytotoxicity against U266, in words (U266): cytotoxic; EC50 (U266; read-out: U266 EC50, Table 2): 825 nM; EC50 (NF-κB; [17]): 5.3 µM; EC50 [1, 12]: 2000 nM; EC50 [1, 13]: 1400 to 10600 nM
C[C@@]12OC(=O)[C@]1([C@@H](O)[C@@H]1C=CCCC1)NC(=O)[C@H]2CCCl [Formula II-26] | 2230 | cytotoxic | 1610 | – | – | able to inhibit | – | – | dose-dependent decrease | cytotoxicity against U266, in words (U266): cytotoxic; EC50 (U266; read-out: U266 EC50, Table 2): 829 nM; EC50 (NF-κB; [7]): 4.3 µM; EC50 (NF-κB; [15]): 4.1 µM
CC[C@@H]1C(=O)N[C@@]2([C@@H](O)[C@@H]3C=CCCC3)C(=O)O[C@@]12C [Formula II-27] | – | – | – | – | – | – | – | > 20000 nM | – | EC50 (NF-κB; [7]): > 20 µM
C[C@@H]1C(=O)N[C@@]2([C@@H](O)[C@@H]3C=CCCC3)C(=O)O[C@@]12C [Formula II-28] | > 20000 | – | – | – | – | – | > 20 µM | > 20000 nM | – | EC50 (U266; [5]): > 20000 nM; EC50 (NF-κB; [17]): > 20 µM; EC50 [1, 12]: 3200 nM and 3300 nM; EC50 [1, 13]: 1400 to 10600 nM
C[C@@]12OC(=O)[C@]1(C(=O)C1=CC(O)CCC1)NC(=O)[C@]2(C)CCCl (stereo partly shown) [Formula II-31] | > 20000 | – | – | – | – | – | – | – | – | –
C[C@@]12OC(=O)[C@]1(C(=O)C1=CC(O)CCC1)NC(=O)[C@]2(C)CCCl (stereo partly shown) [Formula II-32] | – | – | > 20000 | – | – | – | – | – | – | –
C[C@@]12OC(=O)[C@]1([C@@H](O)[C@@H]1C=CCCC1)NC(=O)[C@@H]2CCN=C=S [Formula II-38] | 2600 | cytotoxic | 1800 | 3.4 ± 0.2 nM | 2 to 11 | – | – | – | – | –
COC(=O)CCSC(=O)[C@]1([C@@H](O)[C@@H]2C=CCCC2)NC(=O)[C@H](CCCl)[C@]1(C)O [Formula II-44] | 12 | cytotoxic | 8.8 | 11 nM and 8.7 nM | 2 to 11 | able to inhibit | 1.4 µM | 55 nM and 54 nM | dose-dependent decrease | EC50 [3, 14]: 0.956 to 8.7 µM; EC50 (NF-κB; [16]): 0.017 ± 0.004 µM
CC[C@H]1C(=O)N[C@](C(=O)SCCC(=O)OC)([C@@H](O)[C@@H]2C=CCCC2)[C@@]1(C)O [Formula II-47] | 8000 ± 3400 | cytotoxic | – | 50 ± 10 nM | 13 to 88 | – | – | – | – | –
COC(=O)C(CSC(=O)[C@]1([C@@H](O)[C@@H]2C=CCCC2)NC(=O)[C@H](CCCl)[C@]1(C)O)NC(C)=O (stereo partly shown) [Formula II-50] | 10 | cytotoxic | – | – | – | – | – | – | – | –
COC(=O)CCSC(=O)C1(C(O)C2C=CCCC2)NC(=O)C2CCOC21C (stereo not shown) [Formula VI-1A] | 8400 | cytotoxic | 7800 | 274 nM and 207 nM | 207 to 964 | able to inhibit | 7.9 µM and 8.7 µM | 3100 nM and 3000 nM | – | EC50 [3, 14]: 0.956 to 8.7 µM; EC50 (NF-κB; [17]): > 20 µM
